The values below are quoted from earlier work in US10507186B2, “Methods and compositions particularly for treatment of attention deficit disorder” (Purdue Pharma L.P., priority 2014, dated 2019).

Where a name gives a salt, the structure may show the parent alone. Read-outs that look alike come from different tables or passages of the source.

In series [1] the test system is ADHD symptoms in patients. To be noted: long-acting lisdexamfetamine dimesylate.

In the case of `COC(=O)C(c1ccccc1)C1CCCCN1` (racemic) [Methylphenidate, dl-threo-methyl-2-phenyl-2-(2-piperidyl)acetate], the degradation amount entry (as the pH increases to 8.9) is listed as “up to 100%”. In addition, the stability entry (in acidic solutions) is reported as “relatively stable” and the stability result (in basic solutions, hydrolysis of the methyl ester to the free acid) is “degraded extensively”.

In the case of `COC(=O)C(c1ccccc1)C1CCCCN1` (stereo not drawn) [Methylphenidate hydrochloride], the solubility entry is listed as “slightly soluble” (in acetone); “soluble” (in alcohol); “slightly soluble” (in chloroform); “freely soluble” (in methanol); “freely soluble” (in water).

Regarding lisdexamfetamine dimesylate, the “reported duration of action” value in series [1] was “up to 14 hours”.
